Reference: patent US4820694A, “Modifications of 3-O-demethylmycinose in macrocin and lactenocin” (priority 1986, dated 1989)
≈ marks a conversion by molar mass, not a printed value. Where two headings read alike, the source gives them in different places.

How the values were obtained:
Pasteurella multocida = Pasteurella multocida infection in one-day-old chicks; type: in vivo; conditions: subcutaneously, 30 mg/kg × 2, 1 and 4 hours post-challenge
Experimental: Some of the formula 1 compounds have also shown in vivo antibacterial activity against infections induced by Gram-negative bacteria. Table VI summarizes the results of tests in which illustrative compounds were evaluated against a Pasteurella infection in one-day-old chicks. The compounds were administered by subcutaneous injection at a dosage of 30 mg/kg, 1 and 4 hours post-challenge of the chicks with Pasteurella multocida (0.1 ml of a 10^-4 dilution of a twenty-hour tryptose broth culture of an avian P. multocida given subcutaneously). In these tests, unless indicated otherwise, all non-medicated infected chicks died within 24 hours of Pasteurella challenge.
^a Administered subcutaneously; 30 mg/kg × 2

[1] = test system: Mycoplasma gallisepticum 36H; test: broth-dilution microtiter MIC test; type: cell-based; conditions: Mycoplasmoides gallisepticum, 36H
Experimental: (§1) The MIC's in Table III were determined by standard agar-dilution assays. The MIC's in Table IV were obtained using conventional brothdilution microtiter tests.

[2] = test system: Pasteurella multocida 40G; test: broth-dilution microtiter MIC test; type: cell-based; conditions: Pasteurella multocida, 40G
Experimental: as §1

[3] = test system: Mycoplasma gallisepticum 15E; test: broth-dilution microtiter MIC test; type: cell-based; conditions: Mycoplasmoides gallisepticum, 15E
Experimental: as §1

[4] = test system: Pasteurella multocida 60A; test: broth-dilution microtiter MIC test; type: cell-based; conditions: Pasteurella multocida, 60A
Experimental: as §1

Mycoplasma synoviae 40A = test: broth-dilution microtiter MIC test; type: cell-based; conditions: Mycoplasmopsis synoviae, 40A
Experimental: as §1

[5] = test system: Pasteurella hemolytica 23C; test: broth-dilution microtiter MIC test; type: cell-based; conditions: Pasteurella, 23C
Experimental: as §1

[6] = test system: Mycoplasma gallisepticum 29C; test: broth-dilution microtiter MIC test; type: cell-based; conditions: Mycoplasmoides gallisepticum, 29C
Experimental: as §1

[7] = test system: Staphylococcus aureus 19C; test: broth-dilution microtiter MIC test; type: cell-based; conditions: Staphylococcus aureus, 19C
Experimental: as §1

[8] = test system: Pasteurella multocida 17E; test: broth-dilution microtiter MIC test; type: cell-based; conditions: Pasteurella multocida, 17E
Experimental: as §1

Mycoplasma hyorhinis 29E = test: broth-dilution microtiter MIC test; type: cell-based; conditions: Mycoplasma, 29E
Experimental: as §1

[9] = test system: Pasteurella hemolytica 41D; test: broth-dilution microtiter MIC test; type: cell-based; conditions: Pasteurella, 41D
Experimental: as §1

[10] = test system: Pasteurella multocida 22A; test: broth-dilution microtiter MIC test; type: cell-based; conditions: Pasteurella multocida, 22A
Experimental: as §1

[11] = test system: Bordetella bronchiseptica; test: broth-dilution microtiter MIC test; type: cell-based; conditions: Bordetella bronchiseptica
Experimental: as §1

Streptococcus sp. 19F = test: broth-dilution microtiter MIC test; type: cell-based; conditions: Streptococcus, SP.19F
Experimental: as §1

[12] = test system: Pasteurella multocida 68C; test: broth-dilution microtiter MIC test; type: cell-based; conditions: Pasteurella multocida, 68C
Experimental: as §1

[13] = test system: Pasteurella hemolytica 22C; test: broth-dilution microtiter MIC test; type: cell-based; conditions: Pasteurella, 22C
Experimental: as §1

[14] = test system: Streptococcus pyogenes C203; test: protection of mice experimentally infected with S. pyogenes C203; type: in vivo; conditions: C203, sc, Subcutaneous, mice, mg/kg × 2, doses given 1 and 4 hours postinfection, read-out: ED50
How it was run: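 Mice experimentally infected with S. pyogenes C203 got two doses of test compound, at 1 and 4 h postinfection. The ED50 is the dose in mg/kg (per dose, given twice) that protected 50% of the animals.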

[15] = test system: Streptococcus pneumoniae Park I; test: microbe, parasite or virus in culture; type: cell-based; conditions: Streptococcus pneumoniae
Experimental: as §1

[16] = test system: Staphylococcus aureus S13E; test: microbe, parasite or virus in culture; type: cell-based; conditions: Staphylococcus aureus, S13E
Experimental: as §1

[17] = test system: Haemophilus influenzae 76; test: standard agar-dilution MIC assay; type: cell-based; conditions: Haemophilus influenzae, 76
Experimental: as §1

[18] = test system: Staphylococcus aureus X1.1; test: standard agar-dilution MIC assay; type: cell-based; conditions: Staphylococcus aureus, X1.1
Experimental: as §1

[19] = test system: Klebsiella pneumoniae X68; test: standard agar-dilution MIC assay; type: cell-based; conditions: Klebsiella pneumoniae, X68
Experimental: as §1

[20] = test system: Staphylococcus aureus X400; test: standard agar-dilution MIC assay; type: cell-based; conditions: Staphylococcus aureus, X400
Experimental: as §1

[21] = test system: Haemophilus influenzae C.L.; test: standard agar-dilution MIC assay; type: cell-based; conditions: Haemophilus influenzae
Experimental: as §1

[22] = test system: Pseudomonas aeruginosa X239; test: standard agar-dilution MIC assay; type: cell-based; conditions: Pseudomonas aeruginosa, X239
Experimental: as §1

[23] = test system: Streptococcus Group D X66; test: standard agar-dilution MIC assay; type: cell-based; conditions: read-out: MIC
Experimental: as §1

[24] = test system: Staphylococcus epidermidis EPI1; test: standard agar-dilution MIC assay; type: cell-based; conditions: Staphylococcus epidermidis, EPI1
Experimental: as §1

Escherichia coli EC14 = test: standard agar-dilution MIC assay; type: cell-based
Experimental: as §1

[25] = test system: Staphylococcus aureus V41; test: standard agar-dilution MIC assay; type: cell-based; conditions: Staphylococcus aureus, V41
Experimental: as §1

[26] = test system: Streptococcus Group D 9960; test: standard agar-dilution MIC assay; type: cell-based; conditions: GROUPD9960, read-out: MIC
Experimental: as §1

[27] = test system: Streptococcus pyogenes C203; test: standard agar-dilution MIC assay; type: cell-based; conditions: Streptococcus pyogenes, C203
Experimental: as §1

[28] = test system: Staphylococcus epidermidis EP12; test: standard agar-dilution MIC assay; type: cell-based
Experimental: as §1

[29] = broth-dilution microtiter, read-out: MIC

SMILES: CCC1OC(=O)CC(O)C(C)C(OC2OC(C)C(O)C(N(C)C)C2OC(C)=O)C(CC=O)CC(C)C(=O)C=CC(C)=CC1COC1OC(C)C(OC(=O)COc2ccccc2)C(O)C1OC (stereo not drawn) [Compound 33, 2'-O-Acetyl-4"-O-phenoxyacetyl-lactenocin]
- Number of Deaths/Number Treated (Pasteurella multocida): 8/10
- MIC [1, 29]: 12.5 µg/mL (≈ 13.4 µM)
- MIC [2, 29]: 12.5 µg/mL (≈ 13.4 µM)
- MIC [3, 29]: 12.5 µg/mL (≈ 13.4 µM)
- MIC ([4]; broth-dilution microtiter, Avian isolate, read-out: MIC): 6.25 µg/mL (≈ 6.69 µM)
- MIC (Mycoplasma synoviae 40A; [29]): 0.39 µg/mL (≈ 0.418 µM)
- MIC [5, 29]: 12.5 µg/mL (≈ 13.4 µM)
- MIC [6, 29]: 0.39 µg/mL (≈ 0.418 µM)
- MIC [7]: 0.78 µg/mL (≈ 0.835 µM)
- MIC ([8]; broth-dilution microtiter, Bovine isolate, read-out: MIC): 12.5 µg/mL (≈ 13.4 µM)
- MIC (Mycoplasma hyorhinis 29E): 3.12 µg/mL (≈ 3.34 µM)
- MIC [9, 29]: 12.5 µg/mL (≈ 13.4 µM)
- MIC [10, 29]: 12.5 µg/mL (≈ 13.4 µM)
- MIC [11]: 50 µg/mL (≈ 53.5 µM)
- MIC (Streptococcus sp. 19F; [29]): 0.39 µg/mL (≈ 0.418 µM)
- MIC [12, 29]: 6.25 µg/mL (≈ 6.69 µM)
- MIC [13, 29]: 12.5 µg/mL (≈ 13.4 µM)
- ED50 [14]: 1.9 mg/kg
- MIC ([15]; agar-dilution, read-out: MIC): 0.25 µg/mL (≈ 0.268 µM)
- MIC [16]: 1 µg/mL (≈ 1.07 µM)
- MIC ([17]; agar-dilution, Ampicillin-resistant strain, read-out: MIC): 8 µg/mL (≈ 8.56 µM)
- MIC [18]: 1 µg/mL (≈ 1.07 µM)
- MIC ([19]; agar-dilution, read-out: MIC): > 128 µg/mL
- MIC ([20]; agar-dilution, Methicillin-resistant strain, read-out: MIC): 2 µg/mL (≈ 2.14 µM)
- MIC ([21]; agar-dilution, Ampicillin-sensitive strain, read-out: MIC): 8 µg/mL (≈ 8.56 µM)
- MIC ([22]; agar-dilution, read-out: MIC): > 128 µg/mL
- MIC [23]: 1 µg/mL (≈ 1.07 µM)
- MIC [24]: 1 µg/mL (≈ 1.07 µM)
- MIC (Escherichia coli EC14; agar-dilution, read-out: MIC): > 128 µg/mL
- MIC [25]: 1 µg/mL (≈ 1.07 µM)
- MIC [26]: 1 µg/mL (≈ 1.07 µM)
- MIC [27]: 0.5 µg/mL (≈ 0.535 µM)

SMILES: CCC1OC(=O)CC(O)C(C)C(OC2OC(C)C(O)C(N(C)C)C2OC(C)=O)C(CC=O)CC(C)C(=O)C=CC(C)=CC1COC1OC(C)C(OC(=O)Cc2ccccc2)C(O)C1OC (stereo not drawn) [Compound 29, 2'-O-Acetyl-4"-O-phenylacetyl-lactenocin]
- Number of Deaths/Number Treated (Pasteurella multocida): 9/10
- MIC [1]: 6.25 µg/mL (≈ 6.81 µM)
- MIC [2]: 25 µg/mL (≈ 27.2 µM)
- MIC [3]: 12.5 µg/mL (≈ 13.6 µM)
- MIC [4]: 25 µg/mL (≈ 27.2 µM)
- MIC (Mycoplasma synoviae 40A): 0.195 µg/mL (≈ 0.212 µM)
- MIC [5]: 12.5 µg/mL (≈ 13.6 µM)
- MIC [6]: 0.195 µg/mL (≈ 0.212 µM)
- MIC [7]: 1.56 µg/mL (≈ 1.7 µM)
- MIC [8]: 12.5 µg/mL (≈ 13.6 µM)
- MIC (Mycoplasma hyorhinis 29E): 1.56 µg/mL (≈ 1.7 µM)
- MIC [9]: 12.5 µg/mL (≈ 13.6 µM)
- MIC [10]: 25 µg/mL (≈ 27.2 µM)
- MIC [11]: > 50 µg/mL
- MIC (Streptococcus sp. 19F): 0.39 µg/mL (≈ 0.425 µM)
- MIC [12]: 6.25 µg/mL (≈ 6.81 µM)
- MIC [13]: 12.5 µg/mL (≈ 13.6 µM)
- MIC [15]: 0.25 µg/mL (≈ 0.272 µM)
- MIC [16]: 1 µg/mL (≈ 1.09 µM)
- MIC [28]: 1 µg/mL (≈ 1.09 µM)
- MIC [18]: 1 µg/mL (≈ 1.09 µM)
- MIC [19]: > 128 µg/mL
- MIC [20]: 1 µg/mL (≈ 1.09 µM)
- MIC [22]: > 128 µg/mL
- MIC [23]: 1 µg/mL (≈ 1.09 µM)
- MIC [24]: 1 µg/mL (≈ 1.09 µM)
- MIC (Escherichia coli EC14): > 128 µg/mL
- MIC [25]: 1 µg/mL (≈ 1.09 µM)
- MIC [26]: 1 µg/mL (≈ 1.09 µM)
- MIC [27]: 0.5 µg/mL (≈ 0.545 µM)

SMILES: CCC1OC(=O)CC(O)C(C)C(OC2OC(C)C(OC3CC(C)(O)C(O)C(C)O3)C(N(C)C)C2OC(C)=O)C(CC=O)CC(C)C(=O)C=CC(C)=CC1COC1OC(C)C(OC(=O)Cc2ccccc2)C(O)C1OC (stereo not drawn) [Compound 9, 2'-O-Acetyl-4'"-O-phenylacetyl-macrocin]
- Number of Deaths/Number Treated (Pasteurella multocida): 10/10
- MIC [1]: 12.5 µg/mL (≈ 11.8 µM)
- MIC [2]: > 50 µg/mL
- MIC [3]: 12.5 µg/mL (≈ 11.8 µM)
- MIC [4]: > 50 µg/mL
- MIC [5]: > 50 µg/mL
- MIC [6]: 0.78 µg/mL (≈ 0.734 µM)
- MIC [7]: 3.12 µg/mL (≈ 2.94 µM)
- MIC [8]: > 50 µg/mL
- MIC (Mycoplasma hyorhinis 29E): 1.56 µg/mL (≈ 1.47 µM)
- MIC [9]: > 50 µg/mL
- MIC [10]: > 50 µg/mL
- MIC [11]: > 50 µg/mL
- MIC (Streptococcus sp. 19F): 1.56 µg/mL (≈ 1.47 µM)
- MIC [12]: > 50 µg/mL
- MIC [13]: > 50 µg/mL
- MIC [15]: 0.25 µg/mL (≈ 0.235 µM)
- MIC [16]: 2 µg/mL (≈ 1.88 µM)
- MIC [28]: 2 µg/mL (≈ 1.88 µM)
- MIC [17]: 32 µg/mL (≈ 30.1 µM)
- MIC [18]: 1 µg/mL (≈ 0.941 µM)
- MIC [19]: > 128 µg/mL
- MIC [20]: 2 µg/mL (≈ 1.88 µM)
- MIC [21]: 32 µg/mL (≈ 30.1 µM)
- MIC [22]: > 128 µg/mL
- MIC [23]: 1 µg/mL (≈ 0.941 µM)
- MIC [24]: 2 µg/mL (≈ 1.88 µM)
- MIC (Escherichia coli EC14): > 128 µg/mL
- MIC [25]: 1 µg/mL (≈ 0.941 µM)
- MIC [26]: 0.5 µg/mL (≈ 0.471 µM)
- MIC [27]: 0.5 µg/mL (≈ 0.471 µM)
